Test results published in article PMC6646235, “Structure and ligand binding of As-p18, an extracellular fatty acid binding protein from the eggs of a parasitic nematode” (Bioscience Reports, 2019).

How the values were obtained:
[1] = biological target: T1, As-p18 (Ascaris suum, UniProt P55776); test: isothermal titration calorimetry; complex also solved by solution NMR; format: binding
T1 construct: mature protein without secretion signal peptide, N-terminal His-tag (pQE-30/As-p18), expressed in E. coli BL21 (DE3); monomer; delipidated by RP-HPLC for NMR, co-purified lipid retained for crystal
T1 sequence (P55776 21-163): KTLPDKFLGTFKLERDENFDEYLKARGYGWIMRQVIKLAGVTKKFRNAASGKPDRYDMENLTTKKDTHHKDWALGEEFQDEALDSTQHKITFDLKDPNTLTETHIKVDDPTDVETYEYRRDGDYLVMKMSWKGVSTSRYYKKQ

[2] = biological target: T1, As-p18; test: X-ray crystallography at […] Å; GC-MS of co-purified lipid; format: binding; conditions: co-purified from E. coli; pH 4.5 crystal; ligand density incomplete, vaccenate modelled

Row | Compound | Kd [1] [µM] | X-ray crystallography at 2.3 Å; GC-MS of co-purified lipid [2]
1 | CCCCCCCC/C=C\CCCCCCCC(=O)O [oleic acid] | 3.1 | 
2 | CCCCCC/C=C\CCCCCCCCCC(=O)O [vaccenate, cis-11-octadecenoate] |  | The two X-ray structures of As-p18 in complex with vaccenate
